# Test results: patent US20250018068A1, “4H-IMIDAZO[1,5-B]PYRAZOLE DERIVATIVES FOR DIAGNOSIS” (AC IMMUNE SA, priority 2021, published 2025)
# Counter-ions that a name gives are not always drawn. Like-named read-outs stand apart in the source and are kept apart here.
# Molecular target: T1, PD brain-derived alpha-synuclein aggregates (Homo sapiens, UniProt P37840)
# T1 construct: from tissue; host or cells: human PD donor brain, sarkosyl-insoluble pellet
# Test: Micro-radiobinding competition assay for the determination of binding affinity
# Settings: for inhibition at 0.1 µM: read-out: Micro-radiobinding competition assay Competition at 100 nM (%); for inhibition at 1 µM: read-out: Micro-radiobinding competition assay Competition at 1 μM (%); for Ki: * = mean of two independent experiments, two donors
# Procedure: The procedure was adapted from the protocol described in Spillantini et al., 1998. Frozen tissue blocks from PD donors were thawed on ice and homogenized using a glass dounce homogenizer. The homogenate was then centrifuged at 11,000×g (12,700 RPM) in an ultracentrifuge (Beckman, XL100K) for 20 minutes at 4° C. using a pre-cooled 70.1 rotor (Beckman, 342184). Pellets were resuspended in extraction buffer [10 mM Tris-HCl pH 7.4, 10% sucrose, […], 1% protease inhibitor (Calbiochem 539131), 1 mM EGTA, 1% phosphatase inhibitor (Sigma P5726 and P0044)] and centrifuged at 15,000×g (14,800 RPM, a 70.1 Ti rotor) for 20 minutes at 4° C. Pellets were discarded and sarkosyl (20% stock solution, Sigma L7414) was added to the supernatants to a final concentration of 1% at room temperature for one hour. This solution was then centrifuged at 100,000×g (38,000 RPM, 70.1 Ti rotor) for one hour at 4° C. Pellets containing enriched alpha-synuclein aggregates were resuspended in PBS and stored at −80° C. until use.
# PD brain-derived alpha-synuclein aggregates were spotted onto microarray slides. The slides were incubated with [^3H]-alpha-synuclein reference at 6 nM or 20 nM and the example compounds (non-radiolabelled) at 1 μM and 100 nM. In some cases, the non-radiolabelled example compounds were further assessed for a range of different concentrations, varying from 0.05 nM to 2 μM. After incubation, slides were washed and scanned by a real-time autoradiography system (BeaQuant, ai4R). Quantification of the signal was performed by using the Beamage image analysis software (ai4R). Non-specific signal was determined with an excess of non-radiolabelled Example-1 (2 μM) and specific binding was calculated by subtracting the non-specific signal from the total signal. Competition was calculated as percent, where 0% was defined as the specific binding in the presence of vehicle and 100% as the values obtained in the presence of excess of the non-radiolabelled Example-1. Ki values were calculated in GraphPad Prism7 by applying a nonlinear regression curve fit using a one site, specific binding model. All measurements were performed with at least two technical replicates. For compounds tested in more than one experiment, the mean of the replicates or Ki values in independent experiments is reported.
# Results: Example compounds were assessed for their potency to compete with the binding of [^3H]-reference alpha-synuclein ligand to PD patient brain-derived alpha-synuclein aggregates. Results of the micro-radiobinding competition assay for the example compounds tested are shown in Table 3 as: % competition at 1 μM and 100 nM.
# Table 3: Assessment of binding affinity by micro-radiobinding competition assay on human PD brain-derived alpha-synuclein aggregates. Percent (%) competition over the tritiated [^3H]-Example-1 ligand in the presence of 1 μM and 100 nM of example compounds 1-9. Ki values are also shown for selected example compounds. *, mean of Ki values in two independent experiments using PD brain-derived homogenates from two different donors.
# [1] = 100 nM non-radiolabelled compound, competition over tritiated [3H]-Example-1 ligand, human PD brain-derived alpha-synuclein aggregates
# [2] = 1 μM non-radiolabelled compound, competition over tritiated [3H]-Example-1 ligand, human PD brain-derived alpha-synuclein aggregates
# [3] = human PD brain-derived alpha-synuclein aggregates
Compound,inhibition at 0.1 µM [1] [%],inhibition at 1 µM [2] [%],Ki [3] [nM],also measured
"Cn1cc(N2Cc3cc(-c4ccc(OCCF)nc4)nn3C2=O)cn1 [Example 22, 2-(6-(2-fluoroethoxy)pyridin-3-yl)-5-(1-methyl-1H-pyrazol-4-yl)-4,5-dihydro-6H-imidazo[1,5-b]pyrazol-6-one hydrogen chloride salt]",45,89,–,–
"O=C1N(c2ccccn2)Cc2cc(-c3ccc(N4CC[C@@H](F)C4)nc3)nn21 [Example 3, (R)-2-(6-(3-fluoropyrrolidin-1-yl)pyridin-3-yl)-5-(pyridin-2-yl)-4H-imidazo[1,5-b]pyrazol-6(5H)-one]",74,89,–,–
"Cc1ncc(N2Cc3cc(-c4ccc(N5CC[C@@H](F)C5)nc4)nn3C2=O)s1 [Example 18, (R)-2-(6-(3-fluoropyrrolidin-1-yl)pyridin-3-yl)-5-(2-methylthiazol-5-yl)-4,5-dihydro-6H-imidazo[1,5-b]pyrazol-6-one hydrogen chloride salt]",51,83,51,–
"O=C1N(c2cccnc2)Cc2cc(-c3cnc(N4CC[C@H](F)C4)cn3)nn21 [Example 11, (S)-2-(5-(3-fluoropyrrolidin-1-yl)pyrazin-2-yl)-5-(pyridin-3-yl)-4,5-dihydro-6H-imidazo[1,5-b]pyrazol-6-one hydrogen chloride salt]",25,76,252,–
"Cn1cc(N2Cc3cc(-c4ccc(N5CC[C@H](F)C5)nc4)nn3C2=O)cn1 [Example 6, (S)-2-(6-(3-fluoropyrrolidin-1-yl)pyridin-3-yl)-5-(1-methyl-1H-pyrazol-4-yl)-4H-imidazo[1,5-b]pyrazol-6(5H)-one]",–,–,–,inhibition at 0.1 µM: 43%; inhibition at 1 µM: 93%
"O=C1N(c2cccnc2)Cc2cc(-c3ccc(N4CC[C@@H](F)C4)nc3)nn21 [Example 2, (R)-2-(6-(3-fluoropyrrolidin-1-yl)pyridin-3-yl)-5-(pyridin-3-yl)-4H-imidazo[1,5-b]pyrazol-6(5H)-one hydrochloride]",87,97,46,–
"O=C1N(c2ccncc2)Cc2cc(-c3ccc(N4CC[C@H](F)C4)nc3)nn21 [Example 5, (S)-2-(6-(3-fluoropyrrolidin-1-yl)pyridin-3-yl)-5-(pyridin-4-yl)-4H-imidazo[1,5-b]pyrazol-6(5H)-one hydrochloride]",59,89,26,–
"O=C1N(c2cccnc2)Cc2cc(-c3cnc(N4CC[C@@H](F)C4)c(F)c3)nn21 [Example 12, (R)-2-(5-fluoro-6-(3-fluoropyrrolidin-1-yl)pyridin-3-yl)-5-(pyridin-3-yl)-4,5-dihydro-6H-imidazo[1,5-b]pyrazol-6-one hydrogen chloride salt]",76,90,34,–
"O=C1N(c2cncs2)Cc2cc(-c3ccc(N4CC[C@H](F)C4)nc3)nn21 [Example 17, (S)-2-(6-(3-fluoropyrrolidin-1-yl)pyridin-3-yl)-5-(thiazol-5-yl)-4,5-dihydro-6H-imidazo[1,5-b]pyrazol-6-one hydrogen chloride salt]",–,–,–,Micro-radiobinding competition assay Competition at 100 nM (%) [1]: 66%; Micro-radiobinding competition assay Competition at 1 μM (%) [2]: 95%
"Cc1nc(N2CC[C@@H](F)C2)ccc1-c1cc2n(n1)C(=O)N(c1cccnc1)C2 [Example 14, (R)-2-(6-(3-fluoropyrrolidin-1-yl)-2-methylpyridin-3-yl)-5-(pyridin-3-yl)-4,5-dihydro-6H-imidazo[1,5-b]pyrazol-6-one hydrogen chloride salt]",56,85,80,–
"O=C1N(c2ccccn2)Cc2cc(-c3ccc(N4CC[C@H](F)C4)nc3)nn21 [Example 4, (S)-2-(6-(3-fluoropyrrolidin-1-yl)pyridin-3-yl)-5-(pyridin-2-yl)-4H-imidazo[1,5-b]pyrazol-6(5H)-one hydrochloride]",94,100,–,–
"O=C1N(c2cnn(CCF)c2)Cc2cc(-c3ccc(N4CCCC4)nc3)nn21 [Example 8, 5-(1-(2-fluoroethyl)-1H-pyrazol-4-yl)-2-(6-(pyrrolidin-1-yl)pyridin-3-yl)-4H-imidazo[1,5-b]pyrazol-6(5H)-one]",–,–,64,inhibition at 0.1 µM: 27%; inhibition at 1 µM: 73%
"Cn1ccc(N2Cc3cc(-c4ccc(N5CC[C@H](F)C5)nc4)nn3C2=O)n1 [Example 7, (S)-2-(6-(3-fluoropyrrolidin-1-yl)pyridin-3-yl)-5-(1-methyl-1H-pyrazol-3-yl)-4H-imidazo[1,5-b]pyrazol-6(5H)-one hydrochloride]",73,96,–,–
"O=C1N(c2cccnc2)Cc2cc(-c3ccc(Br)nc3)nn21 [Example 9, 2-(6-bromopyridin-3-yl)-5-(pyridin-3-yl)-4H-imidazo[1,5-b]pyrazol-6(5H)-one]",–,–,–,inhibition at 0.1 µM: 45%; inhibition at 1 µM: 62%

# Further lines, with some results ahead:
inhibition at 0.1 µM [1] [%],inhibition at 1 µM [2] [%],Ki [3] [nM],Compound,also measured
79,98,–,"O=C1N(c2cncs2)Cc2cc(-c3ccc(N4CCC(F)C4)nc3)nn21 (stereo in doubt) [Example 16, (R)-2-(6-(3-fluoropyrrolidin-1-yl)pyridin-3-yl)-5-(thiazol-5-yl)-4,5-dihydro-6H-imidazo[1,5-b]pyrazol-6-one hydrogen chloride salt]",–
48,80,141,"Cc1nc(N2CC[C@H](F)C2)ccc1-c1cc2n(n1)C(=O)N(c1cccnc1)C2 [Example 15, (S)-2-(6-(3-fluoropyrrolidin-1-yl)-2-methylpyridin-3-yl)-5-(pyridin-3-yl)-4,5-dihydro-6H-imidazo[1,5-b]pyrazol-6-onehydrogen chloride salt]",–
82,90,–,"O=C1N(c2ccns2)Cc2cc(-c3ccc(N4CC[C@H](F)C4)nc3)nn21 [Example 21, (S)-2-(6-(3-fluoropyrrolidin-1-yl)pyridin-3-yl)-5-(isothiazol-5-yl)-4,5-dihydro-6H-imidazo[1,5-b]pyrazol-6-one hydrogen chloride salt]",–
41,78,65,"Cc1ncc(N2Cc3cc(-c4ccc(N5CC[C@H](F)C5)nc4)nn3C2=O)s1 [Example 19, (S)-2-(6-(3-fluoropyrrolidin-1-yl)pyridin-3-yl)-5-(2-methylthiazol-5-yl)-4,5-dihydro-6H-imidazo[1,5-b]pyrazol-6-one hydrogen chloride salt]",–
85,87,–,"O=C1N(c2ccns2)Cc2cc(-c3ccc(N4CC[C@@H](F)C4)nc3)nn21 [Example 20, (R)-2-(6-(3-fluoropyrrolidin-1-yl)pyridin-3-yl)-5-(isothiazol-5-yl)-4,5-dihydro-6H-imidazo[1,5-b]pyrazol-6-one hydrogen chloride salt]",–
31,82,–,"O=C1N(c2cncs2)Cc2cc(-c3ccc(OCCF)nc3)nn21 [Example 23, 2-(6-(2-fluoroethoxy)pyridin-3-yl)-5-(thiazol-5-yl)-4,5-dihydro-6H-imidazo [1,5-b] pyrazol-6-one hydrogen chloride salt]",–
72,100,–,"O=C1N(c2cccnc2)Cc2cc(-c3cnc(N4CC[C@@H](F)C4)cn3)nn21 [Example 10, (R)-2-(5-(3-fluoropyrrolidin-1-yl)pyrazin-2-yl)-5-(pyridin-3-yl)-4,5-dihydro-6H-imidazo[1,5-b]pyrazol-6-one]",–
